What was measured:
human NOD2 (hNOD2) = biological target: T1, human NOD2 (hNOD2) (Homo sapiens, UniProt Q9HC29); assay: In vitro NOD2 activation assay in HEK-Blue hNOD2 cells; format: cell-based; details: overnight incubation, FIG. 3
T1 construct: host or cells: HEK-Blue hNOD2 cells
Protocol: The stimulation of human NOD2 (hNOD2) by compounds disclosed herein was studied by monitoring activation of NF-κB in HEK-Blue™ hNOD2 cells (Invitrogen). 50,000 HEK-Blue™ hNOD2 cells were seeded in HEK-Blue™ Detection Medium in flat-bottom tissue culture plates. Concentration ranges of the test article (compounds diluted from DMSO-solutions (17.8 mmoL/L), first with demineralized water and then with PBS to the desired concentrations) were added to the cells in the tissue culture plates. Cells were incubated overnight at 37° C. and 5% CO2. The following day, supernatants were collected in an ELISA plate and the OD was measured at 620 nm using a spectrophotometer.
The signal in this assay is based on NOD2 stimulation with a ligand which subsequently activates NF-κB and AP-1, resulting in the production of SEAP. Levels of SEAP were then determined with HEK-Blue™ Detection medium (Invitrogen). The hydrolysis of the substrate in the medium by SEAP produces a purple/blue color that was then measured with an Absorbance microplate reader. OD values are mapped based on test article concentration and are depicted in FIG. 3. Assay performance was validated with muramyl dipeptide (CAS number [53678-77-6]).

[1] = Solubility test in demineralized water; format: physicochemical; details: 0.3 mM, film, sonicated, overnight
Protocol: Next, compounds were weighed and dissolved in chloroform/methanol. The solutions were left to dry in a vial forming a film of the materials. The vials were put in vacuo to remove traces of organic solvent. Demineralized water was added, such that the concentration of the compounds would become 0.3 mM in case full dissolution would take place (0.3 mM corresponds to 0.3 mg/mL for a MW=1000 Dalton compound). The vial was briefly sonicated in a water bath, left to stand overnight, and once again sonicated (sonication at RT). The appearances of the solutions at RT were checked to assess solubilities. In the below table the results are compiled.

[2] = Solubility test in PBS buffer; format: physicochemical; details: PBS pH 7.4, 0.2 mg/mL; for Appearance at 37° C.: 1 minute in 37° C. water bath; for Appearance at RT: room temperature
Protocol: First, compounds were weighed in a vial and PBS buffer (137, 2.7, 10 and 1.8 mM in NaCl, KCl, Na2HPO4, KH2PO4, respectively; pH=7.4) was added, such that the concentration would become 0.2 mg/mL in case full dissolution would take place. The sample was shaken, left to stand for an hour, shaken again, and then the appearance of the solution at room temperature (RT) was checked. Next, the sample was warmed for 1 minute in a water bath of 37° C., and the appearance of the solution was checked again. In the below table the results are compiled.

[3] = HPLC retention times to compare lipophilicities; format: physicochemical; details: Kinetex EVO C18 column, same gradient A to B; higher retention time = more lipophilic
Protocol: Experimentally, one can also compare lipophilicities of molecules by performing HPLC using the same elution gradient. Molecules that have higher affinities with the hydrophobic C18-material of the column are more lipophilic and as a result have a higher retention time.
Methods: HPLC-MS(SIM) and HPLC-ELSD were performed on a Phenomenex Kinetex 5 micrometer EVO C18 100A LC-column (50×2.1 mm) employing the same gradient from A to B eluent, where A=20 mM NH4HCO2 in H2O with 0.1 v/v % formic acid, and B=2-propanol/MeCN/H2O 85:15:5, also with 20 mM NH4HCO2 and 0.1 v/v % formic acid.

[4] = Degradation by augmented oxidation test; format: physicochemical; details: 12% hydrogen peroxide in water, 80° C., 4 hours
Protocol: The reference compounds MDP and MDP(Bn) as well as the Bn-substituted compounds from Example 7 (i.e. MDP(Bn)-DSPE[click] and Example 14 (i.e. MTP(Bn)-a-DPPE) were mixed with 12% hydrogen peroxide in water and were heated to 80° C. for 4 hours, in order to get a fast degradation of the molecules by oxidation, mimicking slower in-vivo oxidation events.
The resulting reaction mixtures were diluted with acetonitrile and water (1:1) for the MDP and MDP(Bn) test solutions, or with iPrOH, acetonitrile and water (40:7.5:52.5) with 0.1% formic acid and 20 mM ammonium formate for the MDP(Bn)-DSPE[click] and the MTP(Bn)-a-DPPE solutions. The 4 diluted samples were analyzed by HPLC-MS. For reference, the 4 starting materials were also analyzed by HPLC-MS, as well as MDP-DSPE[click] and MTP-a-DPPE, i.e. the de-benzylated reference compounds to the Bn-substituted test molecules.

T1 sequence (Q9HC29 whole entry): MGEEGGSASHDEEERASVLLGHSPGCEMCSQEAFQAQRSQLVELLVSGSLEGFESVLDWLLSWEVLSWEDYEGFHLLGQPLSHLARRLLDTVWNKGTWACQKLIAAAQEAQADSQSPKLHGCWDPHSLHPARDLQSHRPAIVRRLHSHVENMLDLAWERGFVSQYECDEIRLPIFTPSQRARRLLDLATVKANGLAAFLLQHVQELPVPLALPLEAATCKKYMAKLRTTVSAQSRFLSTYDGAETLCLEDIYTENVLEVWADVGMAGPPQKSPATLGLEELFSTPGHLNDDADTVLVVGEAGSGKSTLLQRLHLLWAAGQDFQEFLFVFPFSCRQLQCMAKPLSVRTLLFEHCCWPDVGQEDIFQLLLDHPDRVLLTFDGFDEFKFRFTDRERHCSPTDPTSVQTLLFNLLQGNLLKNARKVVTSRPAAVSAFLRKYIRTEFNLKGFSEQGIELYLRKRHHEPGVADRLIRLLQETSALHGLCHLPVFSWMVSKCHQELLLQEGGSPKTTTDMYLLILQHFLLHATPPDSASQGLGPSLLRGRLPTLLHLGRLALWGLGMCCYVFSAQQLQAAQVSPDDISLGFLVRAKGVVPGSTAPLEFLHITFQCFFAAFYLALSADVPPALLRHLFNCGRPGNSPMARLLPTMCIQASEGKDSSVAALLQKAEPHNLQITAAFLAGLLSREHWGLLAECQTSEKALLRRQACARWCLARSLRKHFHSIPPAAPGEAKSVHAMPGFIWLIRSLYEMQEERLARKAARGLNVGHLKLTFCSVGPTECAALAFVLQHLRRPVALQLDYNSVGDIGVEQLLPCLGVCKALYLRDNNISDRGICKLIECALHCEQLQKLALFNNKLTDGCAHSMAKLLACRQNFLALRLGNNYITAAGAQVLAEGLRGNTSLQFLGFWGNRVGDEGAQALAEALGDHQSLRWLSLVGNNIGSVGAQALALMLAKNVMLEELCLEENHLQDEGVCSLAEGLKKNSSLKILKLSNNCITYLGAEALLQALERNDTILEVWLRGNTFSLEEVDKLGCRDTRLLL

Row | Appearance at RT [1] | Appearance at 37° C. [2] | Appearance at RT [2] | HPLC-ELSD t [3] | HPLC-MS t [3] | SMILES | NOD2 activation (NF-κB/SEAP reporter, OD at 620 nm) (human NOD2 (hNOD2)) | Oxidative degradation, products by HPLC-MS [4]
1 | Gelly/hazy/precipitate | hazy | hazy | 4.58 min | 4.46 min | CCCCCCCCCCCCCCCCCC(=O)OC[C@H](COP(=O)(O)OCCNC(=O)Cn1cc(CNC(=O)CC[C@@H](NC(=O)[C@H](C)NC(=O)[C@@H](C)O[C@H]2[C@H](O)[C@@H](CO)OC(O)[C@@H]2NC(C)=O)C(N)=O)nn1)OC(=O)CCCCCCCCCCCCCCCCC (stereo partly shown) [Example 2, MDP-DSPE [Click]] | comparable | 
2 | Hazy | hazy | suspension | 5.16 min | 5.16 min | CCCCCCCCCCCCCCCCCC(=O)OC[C@H](COP(=O)(O)OCCNC(=O)Cn1cc(CNC(=O)CC[C@@H](NC(=O)[C@H](C)NC(=O)[C@@H](C)O[C@H]2[C@H](O)[C@@H](CO)OC(OCc3ccccc3)[C@@H]2NC(C)=O)C(N)=O)nn1)OC(=O)CCCCCCCCCCCCCCCCC (stereo partly shown) [Example 7, MDP(Bn)-DSPE [Click]] | comparable | mainly degraded via oxidation of the Bn-group to a benzoate group (+14) followed by hydrolysis of the benzoate (−104)
3 | Precipitate |  |  |  |  | CCCCCCCCCCCCCCCCCC(=O)OCc1cn(CCCC[C@H](NC(=O)CC[C@@H](NC(=O)[C@H](C)NC(=O)[C@@H](C)O[C@H]2[C@H](O)[C@@H](CO)OC(OCc3ccccc3)[C@@H]2NC(C)=O)C(N)=O)C(N)=O)nn1 (stereo partly shown) [Example 9, MTP-b-C18[Invclick]] |  | 
4 | Precipitate |  |  |  |  | CCCCCCCCCCCCCCCCCC(=O)NCCCC[C@H](NC(=O)CC[C@@H](NC(=O)[C@H](C)NC(=O)[C@@H](C)O[C@H]1[C@H](O)[C@@H](CO)OC(OCc2ccccc2)[C@@H]1NC(C)=O)C(N)=O)C(N)=O (stereo partly shown) [Example 10, MTP-b-C18] |  | 
5 | Precipitate | suspension | suspension |  |  | CCCCCCCCCCCCCCCCCCNC(=O)CC[C@@H](NC(=O)[C@H](C)NC(=O)[C@@H](C)O[C@H]1[C@H](O)[C@@H](CO)OC(O)[C@@H]1NC(C)=O)C(N)=O (stereo partly shown) [Example 11, MDP-C18] |  | 
6 | Clear | clear | clear |  | 0.95 min | CCCCCCCCCCCCCCCCCC(=O)OC[C@H]1OC(O)[C@H](NC(C)=O)[C@@H](O[C@H](C)C(=O)N[C@@H](C)C(=O)N[C@H](CCC(=O)O)C(N)=O)[C@@H]1O (stereo partly drawn) [MDP-C18[mur], N-Acetylmuramyl-L-Alanyl-D-Isoglutamine-6-O-Stearoyl, reference compound] |  | 
7 |  |  |  |  |  | CCCCCCCCCCCCCCCC(=O)OC[C@H](COP(=O)(O)OCCNC(=O)[C@H](C)NC(=O)CC[C@@H](NC(=O)[C@H](C)NC(=O)[C@@H](C)O[C@H]1[C@H](O)[C@@H](CO)OC(OCc2ccccc2)[C@@H]1NC(C)=O)C(N)=O)OC(=O)CCCCCCCCCCCCCCC (stereo partly shown) [MTP(Bn)-a-DPPE] |  | mainly degraded via oxidation of the Bn-group to a benzoate group (+14) followed by hydrolysis of the benzoate (−104)
8 | Clear | clear | hazy | 3.04 min | 2.85 min | CCCCCCCCCCCCCCCC(=O)OC[C@H](COP(=O)(O)OCCNC(=O)[C@H](C)NC(=O)CC[C@@H](NC(=O)[C@H](C)NC(=O)[C@@H](C)O[C@H]1[C@H](O)[C@@H](CO)OC(O)[C@@H]1NC(C)=O)C(N)=O)OC(=O)CCCCCCCCCCCCCCC (stereo partly drawn) [Mifamurtide, N—(N-Acetylmuramoyl)-L-alanyl-D-alpha-glutaminyl-N-[(7R)-4-hydroxy-4-oxido-10-oxo-7-[(1-oxohexadecyl)oxy]-3,5,9-trioxa-4-phosphapentacos-1-yl]-L-alaninamide, reference compound] |  | 

Row | SMILES | Appearance at RT [1] | Appearance at 37° C. [2] | Appearance at RT [2] | HPLC-ELSD t [3] | HPLC-MS t [3] | NOD2 activation (NF-κB/SEAP reporter, OD at 620 nm) (human NOD2 (hNOD2)) | Oxidative degradation, products by HPLC-MS [4]
9 | CC(=O)N[C@H]1C(O)O[C@H](CO)[C@@H](O)[C@@H]1O[C@H](C)C(=O)N[C@@H](C)C(=O)N[C@H](CCC(=O)NCc1cn(CC(=O)O[C@H]2CC[C@@]3(C)C(=CC[C@H]4[C@@H]5CC[C@H]([C@H](C)CCCC(C)C)[C@@]5(C)CC[C@@H]43)C2)nn1)C(N)=O (stereo partly shown) [Example 3, MDP-Chol [Click]] | Gelly/hazy/precipitate | hazy | suspension |  |  | comparable | 
10 | CC(=O)N[C@H]1[C@@H](OCc2ccccc2)O[C@H](CO)[C@@H](O)[C@@H]1O[C@H](C)C(=O)N[C@@H](C)C(=O)N[C@H](CCC(=O)NCc1cn(CC(=O)O[C@H]2CC[C@@]3(C)C(=CC[C@H]4[C@@H]5CC[C@H]([C@H](C)CCCC(C)C)[C@@]5(C)CC[C@@H]43)C2)nn1)C(N)=O [Example 8, MDP(Bn)-Chol[Click]] | Precipitate | suspension | suspension |  |  | able to activate NOD2, but seemingly to a lesser extent | 
11 | CCCCCCCCCCCCCCCCCC(=O)OC[C@H](COC(=O)NCCCC[C@H](NC(=O)CC[C@@H](NC(=O)[C@H](C)NC(=O)[C@@H](C)O[C@H]1[C@H](O)[C@@H](CO)OC(OCc2ccccc2)[C@@H]1NC(C)=O)C(N)=O)C(N)=O)OC(=O)CCCCCCCCCCCCCCCCC (stereo partly shown) [Example 13, MTP-b-DSG] | Gel/precipitate | suspension | suspension | 5.49 min |  | able to activate NOD2, but seemingly to a lesser extent | 
12 | CCCCCCCCCCCCCCCC(=O)OC[C@H](COP(=O)(O)OCCNC(=O)[C@H](C)NC(=O)CC[C@@H](NC(=O)[C@H](C)NC(=O)[C@@H](C)O[C@H]1[C@H](O)[C@@H](CO)OC(OCc2ccccc2)[C@@H]1NC(C)=O)C(N)=O)OC(=O)CCCCCCCCCCCCCCC (stereo partly shown) [Example 14, MTP(Bn)-a-DPPE] |  |  |  | 3.5 min | 3.61 min |  | 
